Results taken from US9963452B2, “Methods, compounds, and compositions for inhibition of ROS” (AUGUSTA PHARMACEUTICALS INC., priority 2013, dated 2018).

Tests used:
Type in all cases: cell-based
[1] = system: U138 glioblastoma cell line; test: In-vitro cell survival assay (Alamar blue), U138; settings: U138, one day after compound addition
Experimental: (§1) Five tumor-derived cell lines were treated with the ROS inhibitor compounds and cell survival was monitored to determine the cancer prohibition effects of the compounds. The cell lines included HeLa, a cervical cancer cell line, and four glioblastoma cell lines U138, U87, LN18, and U118. The basic protocol for the in-vitro cell survival assay is the same for all five cell lines. In particular, the cells were seeded in 96-well plates at 2-5×10^3 cells/well (cell line dependent) in culture medium. The cells were grown for 2 days before the compounds were dissolved in DMSO and added to final concentrations of 100 uM, 10 uM, or 1 uM (DMSO final concentration 0.5%). The cell culture was then assayed one day after the addition of the compounds. The assay used Alamar blue as a redox-sensitive dye that interrogates mitochondrial fitness of cells, and these assays provided a readout for cell proliferation and viability. The raw values were normalized to an average of several vehicle control wells and are presented as percent decrease in proliferation/viability, which is converted to half maximal effective concentration (EC50) values.

[2] = system: U118 glioblastoma cell line; test: In-vitro cell survival assay (Alamar blue), U118; settings: U118, one day after compound addition
Experimental: as §1

[3] = system: LN18 glioblastoma cell line; test: In-vitro cell survival assay (Alamar blue), LN18; settings: LN18, one day after compound addition
Experimental: as §1

[4] = system: U87 glioblastoma cell line; test: In-vitro cell survival assay (Alamar blue), U87; settings: U87, one day after compound addition
Experimental: as §1

[5] = system: HeLa cervical cancer cell line; test: In-vitro cell survival assay (Alamar blue), HeLa; settings: one day after compound addition
Experimental: as §1

Row | Structure (SMILES) | EC50 ([1]; 24 h) [µM] | EC50 ([2]; 24 h) [µM] | EC50 ([3]; Homo sapiens, LN-18, 24 h) [µM] | EC50 ([4]; 24 h) [µM] | EC50 ([5]; Homo sapiens, 24 h) [µM] | EC50 [1] [µM] | EC50 [2] [µM] | EC50 [3] [µM] | EC50 [4] [µM] | EC50 [5] [µM]
1 | CCN(CC)CCNC(=O)c1cccc(Nc2nccc(Nc3ccc4ncsc4c3)n2)c1 [drawing 373] | 45 | 35 | 15 | 37 | 15 |  |  |  |  | 
2 | Cc1[nH]c2nc(NCc3cccc([N+](=O)[O-])c3)nn2c(=O)c1Cc1ccccc1 [drawing 359] | > 100 | > 100 | > 100 | 45 | > 100 |  |  |  |  | 
3 | Cc1cc(C)n(-c2cccc(C(=O)NC[C@H]3Cc4cc(Cl)cc(-c5cnccn5)c4O3)c2)n1 | > 100 | 96 | 64 | 94 | 70 |  |  |  |  | 
4 | CSc1sc(-c2n[nH]cc2Br)c2c1C(=O)CC(C)(C)C2 [drawing 396] |  |  |  |  |  | > 100 | > 100 | 94 | 18 | > 100
5 | O=C(NNc1cc(C(F)(F)F)ccc1Cl)c1cccnc1Oc1ccccc1 [drawing 390] | > 100 | > 100 | 58 | 96 | 59 |  |  |  |  | 
6 | CN1CCN(C(=O)c2cccc(Nc3nccc(Nc4ccc5ncsc5c4)n3)c2)CC1 [drawing 415] | 32 | 39 | 14 | 22 | 11 |  |  |  |  | 
7 | Nc1nc(Nc2ccc(C(=O)N3CCC[C@H]4CCCC[C@H]43)cc2)cc(Nc2ccc3ncsc3c2)n1 | > 100 | > 100 | 14 | 30 | 58 |  |  |  |  | 
8 | O=C(c1ccccc1)n1nc(-c2ccco2)nc1NCc1ccccc1 | > 100 | > 100 | > 100 | > 100 | > 100 |  |  |  |  | 
9 | CCOC(=O)c1ccc(NC(=O)CCn2ccc3ccccc32)cc1 [drawing 473] | > 100 | > 100 |  |  | > 100 |  |  |  |  | 
10 | O=C(NC[C@H]1Cc2cc(-c3cncnc3)cc(Cl)c2O1)c1cccc(Cn2cccn2)c1 | > 100 | > 100 | > 100 | > 100 | > 100 |  |  |  |  | 
11 | C[C@H](O)CN(C[C@H](C)O)C(=O)c1cccc(Nc2nccc(Nc3ccc4ncsc4c3)n2)c1 [drawing 420] | 19 | 31 | 31 | 21 | 14 |  |  |  |  | 
12 | CC(C)(C)c1cc(C(=O)NNc2cccc(Cl)c2)n(Cc2ccccc2)n1 [drawing 389] | > 100 | > 100 | > 100 | 50 | > 100 |  |  |  |  | 
13 | COc1ccc(NC(=O)CC2=Nc3cccc4cccc(c34)NC2=O)cc1 [drawing 482] | > 100 | > 100 |  |  | 17 |  |  |  |  | 
14 | O=C(CCn1ccc2ccccc21)Nc1ccc(F)cc1 [drawing 475] | > 100 | > 100 |  |  | > 100 |  |  |  |  | 
15 | C1=C(c2cccc(Nc3nccc(Nc4ccc5ncsc5c4)n3)c2)CCNC1 [drawing 441] | 25 |  | 22 | 40 | 13 |  |  |  |  | 
16 | O=C(O)c1cccc(Nc2ncc(Cl)c(Nc3ccc4ncsc4c3)n2)c1 [drawing 462] | 100 |  | 40 | > 100 | 15 |  |  |  |  | 
17 | O=C(c1ccc(Nc2ncc(Cl)c(Nc3ccc4ncsc4c3)n2)cc1)N1CCCCC1 [drawing 443] | > 100 |  | > 100 | > 100 | > 100 |  |  |  |  | 
18 | CN1CCN(C(=O)c2ccc(Nc3ncc(Cl)c(Nc4ccc5ncsc5c4)n3)cc2)CC1 [drawing 444] | 28 |  | 22 | 15 | 12 |  |  |  |  | 
19 | O=C(c1cccc(Nc2ncc(Cl)c(Nc3ccc4ncsc4c3)n2)c1)N1CCCCC1 [drawing 465] | 15.3 |  | 14 | 12 | 7 |  |  |  |  | 
20 | Cc1cc(-c2ccccc2)c2ccc(N)nc2n1 [drawing 480] | 46 | > 100 |  |  | 58 |  |  |  |  | 
21 | CC(C)c1nc(Nc2ccc(C(=O)N3CCCC3)cc2)nc(Nc2ccc3ncsc3c2)n1 [drawing 457] | 22 |  | 20 | 30 | 4 |  |  |  |  | 
22 | CC(C)c1nc(Nc2ccc3ncsc3c2)nc(N2CCCC2)n1 [drawing 451] | 28 |  | 40 | > 100 | 30 |  |  |  |  | 
23 | COc1ccc(C(F)(F)F)cc1NC(=O)CCn1ccc2ccccc21 [drawing 476] | 98 | 47 |  |  | > 100 |  |  |  |  | 
24 | Cc1ccc(NC(=O)CCn2ccc3ccccc32)cc1 [drawing 472] | > 100 | > 100 |  |  | > 100 |  |  |  |  | 
